Experimental data taken from PubChem BioAssay AID194 (DTP/NCI, 2004).
Values joined by “and” are separate entries in the source; they are usually repeats but may differ in a detail not shown here. Equal values may be shown once. Records with an inconclusive call do not appear.

Tested on: BDF1 mice, B16 melanoma s.c., survival/tumor T/C
Assay: NCI In Vivo Anticancer Drug Screen. Data for tumor model B16 Melanoma (subcutaneous) in B6D2F1 (BDF1) mice
Experimental: The antitumor activity of compounds was measured in mice bearing transplantable tumors. Survival or tumor size were measured and the results are expressed as the measurement made in the treated group (T) divided by the measurement made in the vehicle treated control group (C). The tumor model used in this assay is B16 Melanoma (subcutaneous) in B6D2F1 (BDF1) mice

[1] = endpoint: median survival time, dose: 12.5 mg/kg/injection, schedule: Q01DX009 (ip), vehicle: Klucel (hydroxypropylcellulose) (HPC), higher = longer survival

O=c1[nH]cc(F)c(=O)[nH]1
T/C (endpoint: median survival time, dose: 5.0 mg/kg/injection, schedule: Q01DX009 (ip), vehicle: saline, higher = longer survival): 77 % of control | T/C (endpoint: median survival time, dose: 8.4 mg/kg/injection, schedule: Q01DX009 (ip), vehicle: saline, higher = longer survival): 100 % of control | T/C (endpoint: median survival time, dose: 10.0 mg/kg/injection, schedule: Q01DX009 (ip), vehicle: Klucel (hydroxypropylcellulose) (HPC), higher = longer survival): 100 % of control | T/C (endpoint: median survival time, dose: 10.0 mg/kg/injection, schedule: Q01DX009 (ip), vehicle: saline with Tween-80, higher = longer survival): 98 % of control and 101 % of control | T/C (endpoint: median survival time, dose: 14.0 mg/kg/injection, schedule: Q01DX009 (ip), vehicle: saline, higher = longer survival): 97 % of control | T/C (endpoint: median survival time, dose: 20.0 mg/kg/injection, schedule: Q01DX009 (ip), vehicle: Klucel (hydroxypropylcellulose) (HPC), higher = longer survival): 100 % of control | T/C (endpoint: median survival time, dose: 20.0 mg/kg/injection, schedule: Q01DX009 (ip), vehicle: saline with Tween-80, higher = longer survival): 111 % of control | T/C (endpoint: median survival time, dose: 23.0 mg/kg/injection, schedule: Q01DX009 (ip), vehicle: saline, higher = longer survival): 107 % of control | T/C (endpoint: median survival time, dose: 23.0 mg/kg/injection, schedule: Q04DX003 (ip), vehicle: saline, higher = longer survival): 100 % of control | T/C (endpoint: median survival time, dose: 39.0 mg/kg/injection, schedule: Q04DX003 (ip), vehicle: saline, higher = longer survival): 97 % of control | T/C (endpoint: median survival time, dose: 40.0 mg/kg/injection, schedule: Q01DX009 (ip), vehicle: saline with Tween-80, higher = longer survival): 98 % of control and 107 % of control | T/C (endpoint: median survival time, dose: 50.0 mg/kg/injection, schedule: Q04DX003 (ip), vehicle: saline, higher = longer survival): 113 % of control | T/C (endpoint: median survival time, dose: 65.0 mg/kg/injection, schedule: Q04DX003 (ip), vehicle: saline, higher = longer survival): 86 % of control | T/C (endpoint: median survival time, dose: 108.0 mg/kg/injection, schedule: Q04DX003 (ip), vehicle: saline, higher = longer survival): 107 % of control | T/C (endpoint: median tumor weight (est.), dose: 10.0 mg/kg/injection, schedule: Q01DX009 (ip), vehicle: Klucel (hydroxypropylcellulose) (HPC), higher = larger tumour): 97 % of control and 84 % of control | T/C (endpoint: median tumor weight (est.), dose: 10.0 mg/kg/injection, schedule: Q01DX009 (ip), vehicle: saline with Tween-80, higher = larger tumour): 65 % of control | T/C (endpoint: median tumor weight (est.), dose: 20.0 mg/kg/injection, schedule: Q01DX009 (ip), vehicle: saline with Tween-80, higher = larger tumour): 56 % of control | T/C (endpoint: median tumor weight (est.), dose: 40.0 mg/kg/injection, schedule: Q01DX009 (ip), vehicle: Klucel (hydroxypropylcellulose) (HPC), higher = larger tumour): 75 % of control | T/C (endpoint: median tumor weight (est.), dose: 40.0 mg/kg/injection, schedule: Q01DX009 (ip), vehicle: saline with Tween-80, higher = larger tumour): 39 % of control

S=c1nc[nH]c2nc[nH]c12
T/C [1]: 103 % of control and 118 % of control | T/C (endpoint: median survival time, dose: 25.0 mg/kg/injection, schedule: Q01DX009 (ip), vehicle: saline with Tween-80, higher = longer survival): 100 % of control | T/C (endpoint: median survival time, dose: 50.0 mg/kg/injection, schedule: Q01DX009 (ip), vehicle: saline with Tween-80, higher = longer survival): 100 % of control | T/C (endpoint: median survival time, dose: 100.0 mg/kg/injection, schedule: Q01DX009 (ip), vehicle: saline with Tween-80, higher = longer survival): 93 % of control | T/C (endpoint: median tumor weight (est.), dose: 25.0 mg/kg/injection, schedule: Q01DX009 (ip), vehicle: saline with Tween-80, higher = larger tumour): 103 % of control | T/C (endpoint: median tumor weight (est.), dose: 50.0 mg/kg/injection, schedule: Q01DX009 (ip), vehicle: saline with Tween-80, higher = larger tumour): 91 % of control

COc1cc(NS(C)(=O)=O)ccc1Nc1c2ccccc2nc2ccccc12
T/C (endpoint: median survival time, dose: 0.5 mg/kg/injection, schedule: Q01DX009 (ip), vehicle: other, higher = longer survival): 103 % of control | T/C (endpoint: median survival time, dose: 1.0 mg/kg/injection, schedule: Q01DX009 (ip), vehicle: other, higher = longer survival): 98 % of control | T/C (endpoint: median survival time, dose: 2.0 mg/kg/injection, schedule: Q01DX009 (ip), vehicle: other, higher = longer survival): 89 % of control | T/C (endpoint: median survival time, dose: 2.0 mg/kg/injection, schedule: Q01DX009 (ip), vehicle: saline with Tween-80, higher = longer survival): 102 % of control | T/C (endpoint: median survival time, dose: 3.0 mg/kg/injection, schedule: Q01DX009 (ip), vehicle: saline with Tween-80, higher = longer survival): 101 % of control | T/C (endpoint: median survival time, dose: 4.5 mg/kg/injection, schedule: Q01DX009 (ip), vehicle: saline with Tween-80, higher = longer survival): 98 % of control | T/C (endpoint: median survival time, dose: 9.0 mg/kg/injection, schedule: Q04DX003 (ip), vehicle: saline with Tween-80, higher = longer survival): 89 % of control | T/C (endpoint: median survival time, dose: 13.0 mg/kg/injection, schedule: Q04DX003 (ip), vehicle: saline with Tween-80, higher = longer survival): 108 % of control | T/C (endpoint: median survival time, dose: 20.0 mg/kg/injection, schedule: Q01DX001 (ip), vehicle: saline with Tween-80, higher = longer survival): 101 % of control | T/C (endpoint: median survival time, dose: 20.0 mg/kg/injection, schedule: Q04DX003 (ip), vehicle: saline with Tween-80, higher = longer survival): 98 % of control | T/C (endpoint: median survival time, dose: 30.0 mg/kg/injection, schedule: Q01DX001 (ip), vehicle: saline with Tween-80, higher = longer survival): 107 % of control | T/C (endpoint: median survival time, dose: 45.0 mg/kg/injection, schedule: Q01DX001 (ip), vehicle: saline with Tween-80, higher = longer survival): 107 % of control

O=[N+]([O-])c1ccc(/C=N/c2ncc(Br)s2)o1
T/C (endpoint: median survival time, dose: 1.56 mg/kg/injection, schedule: Q01DX009 (ip), vehicle: Klucel (hydroxypropylcellulose) (HPC), higher = longer survival): 123 % of control | T/C (endpoint: median survival time, dose: 3.12 mg/kg/injection, schedule: Q01DX009 (ip), vehicle: Klucel (hydroxypropylcellulose) (HPC), higher = longer survival): 92 % of control | T/C (endpoint: median survival time, dose: 3.13 mg/kg/injection, schedule: Q01DX009 (ip), vehicle: Klucel (hydroxypropylcellulose) (HPC), higher = longer survival): 121 % of control | T/C (endpoint: median survival time, dose: 6.25 mg/kg/injection, schedule: Q01DX009 (ip), vehicle: Klucel (hydroxypropylcellulose) (HPC), higher = longer survival): 110 % of control and 111 % of control | T/C [1]: 114 % of control

COC12C(COC(N)=O)C3=C(C(=O)C(C)=C(N)C3=O)N1CC1C2N1C (stereo not given)
T/C (endpoint: median survival time, dose: 1.0 mg/kg/injection, schedule: Q01DX009 (ip), vehicle: Klucel (hydroxypropylcellulose) (HPC), higher = longer survival): 106 % of control | T/C (endpoint: median survival time, dose: 2.0 mg/kg/injection, schedule: Q01DX009 (ip), vehicle: Klucel (hydroxypropylcellulose) (HPC), higher = longer survival): 91 % of control | T/C (endpoint: median survival time, dose: 8.0 mg/kg/injection, schedule: Q01DX009 (ip), vehicle: Klucel (hydroxypropylcellulose) (HPC), higher = longer survival): 109 % of control
